The text below walks through data of patent publication US20080194462A1, “Methods and Compositions for Treatment of Autoimmune Diseases” (Peptimmune, Inc., priority 2004, published 2008).

Assay [1] concerns Non-obese diabetic (NOD) mouse. Nature of the assay: Treatment of NOD mice, development of diabetes. It is filed as in vivo. The conditions noted are these: 10 μg injected three times a week. Here is the method: NOD mice are obtained from Jackson Laboratories, Bar Harbor, Me., and are used as an experimental system (Shi et al. (2001) Proc. Natl. Acad. Sci. USA 98: 6777-6782). These mice begin to develop diabetes at about 13-15 weeks and data are obtained after about 30 weeks to obtain data, such as a frequency of symptoms for comparison of treated and untreated groups of mice. NOD mice were treated herein with Copaxone®, and no difference was found between the untreated animals and animals treated with Copaxone®. In the experiment, 10 μg of Copaxone® was injected into mice three times a week (equivalent to the human dose on a weight ratio basis. A higher dose, 33 μg Copaxone®/mouse three times a week, is also employed. These experiments test the hypothesis that Copaxone® would be ineffective.

The next assay has as its system T cells. Particulars: cited from earlier work.

On to Glatiramer acetate, for which the “difference between untreated and treated NOD mice (diabetes)” value in assay [1] is “no difference”. The “proportion of an individual's T cells activated” value in the assay on T cells (HLA-DR restricted) was 15-20%. In addition, the “T cell response generated through HLA-DQ molecules” value in the assay on T cells is on record as “little response”.
